Measured values as given in PubChem BioAssay (NCI).
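Where inhibition never reached the appropriate level, the endpoint shown equals the highest concentration tested. Otherwise, values were interpolated linearly from a five-concentration, 48-hour dose response in 96-well plates. At the GI50, growth is halved. TGI is the concentration that stops growth completely.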

How the values were obtained:
Test in all cases: DTP human tumour cell line panel, 48 h
786-0 renal = tested on: 786-0 renal
OVCAR-8 ovarian = tested on: OVCAR-8 ovarian
OVCAR-4 ovarian = tested on: OVCAR-4 ovarian
M19-MEL melanoma = tested on: M19-MEL melanoma
HCC-2998 colon = tested on: HCC-2998 colon
U251 CNS = tested on: U251 CNS
HCT-15 colon = tested on: HCT-15 colon
SNB-78 CNS = tested on: SNB-78 CNS
SNB-19 CNS = tested on: SNB-19 CNS
HS 578T breast = tested on: HS 578T breast

COCCNC(=O)C1C(=O)C(=O)N(CCOC)C1=O (centres undefined)
TGI (786-0 renal): > 100 µM
TGI (OVCAR-8 ovarian): > 100 µM
TGI (OVCAR-4 ovarian): > 100 µM
TGI (M19-MEL melanoma): > 100 µM
TGI (HCC-2998 colon): > 100 µM
TGI (U251 CNS): > 100 µM
TGI (HCT-15 colon): > 100 µM
TGI (SNB-78 CNS): > 100 µM
TGI (SNB-19 CNS): > 100 µM

Cc1ccc(C)c(N2C(=O)C(=O)C(c3nc4ccccc4s3)/C(=N/NC(=O)NN)C2=O)c1 (centres undefined)
TGI (786-0 renal): > 100 µM
TGI (OVCAR-8 ovarian): > 100 µM
TGI (OVCAR-4 ovarian): > 100 µM
TGI (M19-MEL melanoma): > 100 µM
TGI (HCC-2998 colon): > 100 µM
TGI (U251 CNS): > 100 µM
TGI (HCT-15 colon): > 100 µM
TGI (SNB-78 CNS): > 100 µM
TGI (SNB-19 CNS): > 100 µM

C[CH2][Sn]([CH2]C)([O]C(=O)c1ccccc1OC)[O][Sn]([CH2]C)([CH2]C)[O]C(=O)c1ccccc1OC
GI50 (786-0 renal): > 100 µM
TGI (786-0 renal): > 100 µM
GI50 (OVCAR-8 ovarian): > 100 µM
TGI (OVCAR-8 ovarian): > 100 µM
GI50 (OVCAR-4 ovarian): > 100 µM
TGI (OVCAR-4 ovarian): > 100 µM
GI50 (M19-MEL melanoma): > 100 µM
TGI (M19-MEL melanoma): > 100 µM
GI50 (HCC-2998 colon): > 100 µM
TGI (HCC-2998 colon): > 100 µM
GI50 (U251 CNS): > 100 µM
TGI (U251 CNS): > 100 µM
GI50 (HCT-15 colon): > 100 µM
TGI (HCT-15 colon): > 100 µM
GI50 (SNB-78 CNS): 63.4 µM
TGI (SNB-78 CNS): > 100 µM
GI50 (SNB-19 CNS): > 100 µM
TGI (SNB-19 CNS): > 100 µM

COC(=O)[C@@]1(C(C)CC(=O)O)CCCCC1=O (some centres undefined)
TGI (786-0 renal): > 100 µM
TGI (OVCAR-8 ovarian): > 100 µM
TGI (OVCAR-4 ovarian): > 100 µM
TGI (M19-MEL melanoma): > 100 µM
TGI (HCC-2998 colon): > 100 µM
TGI (U251 CNS): > 100 µM
TGI (HCT-15 colon): > 100 µM
TGI (SNB-78 CNS): > 100 µM
TGI (SNB-19 CNS): > 100 µM

C=C1CCC2[C@@H](CCC3[C@]2(C)CCC[C@]3(C)C(=O)OC)C1CC=O (some centres undefined)
TGI (786-0 renal): 33.1 µM
TGI (OVCAR-8 ovarian): 37.3 µM
TGI (OVCAR-4 ovarian): 32 µM
TGI (M19-MEL melanoma): 33.8 µM
GI50 (U251 CNS): 17.8 µM
TGI (U251 CNS): 33.5 µM
TGI (HCT-15 colon): 43.6 µM
TGI (SNB-78 CNS): 34.1 µM
GI50 (SNB-19 CNS): 18.2 µM
TGI (SNB-19 CNS): 33.1 µM

NC(=O)C(=O)C1CCC2=C(Sc3ccccc3N2)C1=O (centres undefined)
TGI (786-0 renal): > 100 µM
TGI (OVCAR-8 ovarian): > 100 µM
TGI (OVCAR-4 ovarian): > 100 µM
TGI (M19-MEL melanoma): > 100 µM
TGI (HCC-2998 colon): > 100 µM
TGI (U251 CNS): > 100 µM
TGI (HCT-15 colon): > 100 µM
TGI (SNB-78 CNS): > 100 µM
TGI (SNB-19 CNS): > 100 µM

Nc1c([N+](=O)[O-])nc(Cl)c2nncn12
TGI (786-0 renal): > 100 µM
TGI (OVCAR-8 ovarian): > 100 µM
TGI (OVCAR-4 ovarian): > 100 µM
TGI (M19-MEL melanoma): > 100 µM
TGI (HCC-2998 colon): > 100 µM
TGI (U251 CNS): > 100 µM
TGI (HCT-15 colon): 42.4 µM
TGI (SNB-78 CNS): > 100 µM
TGI (SNB-19 CNS): > 100 µM

N#CC(C#N)c1ccc(C(=O)N2CCC[C@H]2CO)cc1
TGI (786-0 renal): > 100 µM
TGI (OVCAR-8 ovarian): > 100 µM
TGI (OVCAR-4 ovarian): > 100 µM
TGI (M19-MEL melanoma): > 100 µM
TGI (HCC-2998 colon): > 100 µM
TGI (U251 CNS): > 100 µM
TGI (HCT-15 colon): > 100 µM
TGI (SNB-19 CNS): > 100 µM

COc1ccc(-c2cc(C(=O)Nc3ccc(C)c(C)c3)nc(NC#N)n2)cc1
TGI (786-0 renal): > 100 µM
TGI (OVCAR-8 ovarian): > 100 µM
TGI (OVCAR-4 ovarian): > 100 µM
TGI (M19-MEL melanoma): > 100 µM
TGI (U251 CNS): > 100 µM
TGI (HCT-15 colon): > 100 µM
TGI (SNB-78 CNS): > 100 µM
TGI (SNB-19 CNS): > 100 µM

Cc1ccccc1NC(=O)C(=O)C(C#N)c1ccccc1C (centres undefined)
TGI (786-0 renal): > 100 µM
TGI (OVCAR-8 ovarian): > 100 µM
TGI (HCC-2998 colon): > 100 µM
TGI (U251 CNS): > 100 µM
TGI (HCT-15 colon): > 100 µM
TGI (SNB-78 CNS): > 100 µM
TGI (SNB-19 CNS): > 100 µM

COCOCC/C=C/C=O
TGI (786-0 renal): > 100 µM
TGI (OVCAR-8 ovarian): > 100 µM
TGI (HCC-2998 colon): > 100 µM
TGI (U251 CNS): > 100 µM
TGI (HCT-15 colon): > 100 µM
TGI (SNB-78 CNS): > 100 µM
TGI (SNB-19 CNS): > 100 µM

Cc1ccc(S(=O)(=O)N/N=C(/CC(=O)c2c(C)n([O-])c3ccccc3[n+]2=O)C(=O)Nc2ccccc2C)cc1
TGI (786-0 renal): > 100 µM
TGI (OVCAR-4 ovarian): > 100 µM
TGI (M19-MEL melanoma): > 100 µM
TGI (HCC-2998 colon): > 100 µM
TGI (U251 CNS): > 100 µM
TGI (HCT-15 colon): > 100 µM
TGI (SNB-78 CNS): > 100 µM
TGI (SNB-19 CNS): > 100 µM

N#CC(c1ccccn1)c1nc2ccccc2[nH]1 (centres undefined)
TGI (786-0 renal): > 100 µM
TGI (OVCAR-8 ovarian): > 100 µM
TGI (OVCAR-4 ovarian): > 100 µM
TGI (M19-MEL melanoma): > 100 µM
TGI (HCC-2998 colon): > 100 µM
TGI (U251 CNS): > 100 µM
TGI (SNB-78 CNS): > 100 µM
TGI (SNB-19 CNS): > 100 µM

Cc1ccc(-c2nc([P+](c3ccccc3)(c3ccccc3)c3ccccc3)c(S(=O)(=O)c3ccc(C)cc3)o2)cc1
GI50 (786-0 renal): 1.46 µM
TGI (786-0 renal): 2.85 µM
GI50 (OVCAR-8 ovarian): 1.32 µM
TGI (OVCAR-8 ovarian): 4.17 µM
GI50 (OVCAR-4 ovarian): 1.4 µM
TGI (OVCAR-4 ovarian): 2.83 µM
GI50 (HS 578T breast): 1.7 µM
TGI (HS 578T breast): 5.31 µM
GI50 (HCC-2998 colon): 1.45 µM
TGI (HCC-2998 colon): 3.01 µM
GI50 (U251 CNS): 1.14 µM
TGI (U251 CNS): 2.43 µM
GI50 (HCT-15 colon): 1.44 µM
TGI (HCT-15 colon): 3.23 µM
GI50 (SNB-19 CNS): 1.64 µM
TGI (SNB-19 CNS): 3.3 µM

C[C@]12CC[C@@H]3c4cc(OC(F)F)c(OS(N)(=O)=O)cc4CC[C@H]3[C@@H]1CC[C@@H]2O
GI50 (786-0 renal): 0.621 µM
TGI (786-0 renal): 29.1 µM
GI50 (OVCAR-8 ovarian): 0.848 µM
TGI (OVCAR-8 ovarian): 60.7 µM
GI50 (OVCAR-4 ovarian): 7.8 µM
TGI (OVCAR-4 ovarian): 83.9 µM
GI50 (HS 578T breast): 0.366 µM
TGI (HS 578T breast): 30.2 µM
GI50 (HCC-2998 colon): 1.04 µM
TGI (HCC-2998 colon): 14 µM
GI50 (U251 CNS): 0.539 µM
TGI (U251 CNS): 16.4 µM
GI50 (HCT-15 colon): 0.406 µM
TGI (HCT-15 colon): 13.6 µM
GI50 (SNB-19 CNS): 0.532 µM
TGI (SNB-19 CNS): 25.6 µM

COc1ccc(-c2nc(/C=C3\SC(=NCc4ccccc4)NC3=O)c3ccccn23)cc1
GI50 (786-0 renal): 0.189 µM
TGI (786-0 renal): 0.498 µM
GI50 (OVCAR-8 ovarian): 2.04 µM
TGI (OVCAR-8 ovarian): 8.13 µM
GI50 (OVCAR-4 ovarian): 1.39 µM
TGI (OVCAR-4 ovarian): 2.84 µM
GI50 (HS 578T breast): 1.37 µM
TGI (HS 578T breast): 4.32 µM
GI50 (HCC-2998 colon): 1.68 µM
TGI (HCC-2998 colon): 4.83 µM
GI50 (U251 CNS): 1.95 µM
GI50 (HCT-15 colon): 1.47 µM
TGI (HCT-15 colon): 2.18 µM
GI50 (SNB-19 CNS): 2.71 µM
TGI (SNB-19 CNS): 9.68 µM

CC1(c2ccccc2Cl)C(C#N)C(=O)NC(=O)C1C#N (centres undefined)
TGI (786-0 renal): > 100 µM
TGI (OVCAR-8 ovarian): > 100 µM
TGI (OVCAR-4 ovarian): > 100 µM
TGI (M19-MEL melanoma): > 100 µM
TGI (HCC-2998 colon): > 100 µM
TGI (HCT-15 colon): > 100 µM
TGI (SNB-78 CNS): > 100 µM
TGI (SNB-19 CNS): 92.8 µM

c1ccc2cc(-c3n(Cc4ccc5ccccc5n4)c4ccccc4[n+]3Cc3ccc4ccccc4n3)ccc2c1
GI50 (786-0 renal): 0.392 µM
TGI (786-0 renal): 1.72 µM
GI50 (OVCAR-8 ovarian): 0.297 µM
TGI (OVCAR-8 ovarian): 1.22 µM
GI50 (OVCAR-4 ovarian): 0.255 µM
TGI (OVCAR-4 ovarian): 1.13 µM
GI50 (HS 578T breast): 0.343 µM
TGI (HS 578T breast): 1.7 µM
GI50 (HCC-2998 colon): 0.344 µM
TGI (HCC-2998 colon): 1.46 µM
GI50 (U251 CNS): 0.242 µM
TGI (U251 CNS): 1.14 µM
GI50 (HCT-15 colon): 1.6 µM
TGI (HCT-15 colon): 3.18 µM
GI50 (SNB-19 CNS): 0.315 µM
TGI (SNB-19 CNS): 1.32 µM

CCN(CC)c1ccc2c(c1)Oc1ccc(N(CC)CC)cc1C21Oc2ccccc2-c2c1c1ccccc1n2CC (centres undefined)
TGI (786-0 renal): > 100 µM
TGI (OVCAR-8 ovarian): > 100 µM
TGI (OVCAR-4 ovarian): > 100 µM
TGI (HCC-2998 colon): > 100 µM
TGI (U251 CNS): > 100 µM
TGI (HCT-15 colon): > 100 µM
TGI (SNB-78 CNS): > 100 µM
TGI (SNB-19 CNS): > 100 µM

C(=N/N(Cc1ccccc1)Cc1ccccc1)/c1ccccc1
GI50 (786-0 renal): > 100 µM
TGI (786-0 renal): > 100 µM
GI50 (OVCAR-8 ovarian): > 100 µM
TGI (OVCAR-8 ovarian): > 100 µM
GI50 (OVCAR-4 ovarian): > 100 µM
TGI (OVCAR-4 ovarian): > 100 µM
GI50 (HS 578T breast): 51.1 µM
TGI (HS 578T breast): > 100 µM
GI50 (HCC-2998 colon): > 100 µM
TGI (HCC-2998 colon): > 100 µM
GI50 (U251 CNS): > 100 µM
TGI (U251 CNS): > 100 µM
GI50 (HCT-15 colon): > 100 µM
TGI (HCT-15 colon): > 100 µM
GI50 (SNB-19 CNS): > 100 µM
TGI (SNB-19 CNS): > 100 µM
